Measured values as given in ChEMBL document CHEMBL4732086, “Targeting nuclear protein TDP-43 by cell division cycle kinase 7 inhibitors: A new therapeutic approach for amyotrophic lateral sclerosis” (Eur J Med Chem, 2021).
The source made the active and inactive calls. The calls are words filed in the database; no cut-off is given here.

Assays:
[1] = target: Cyclin-dependent kinase 5/CDK5 activator 1 (Homo sapiens) (UniProt Q00535+Q15078); assay: Inhibition of recombinant full length human GST/His-tagged CDK5/p35 using serine/threonine-12 peptide as substrate at 10 uM incubated for 60 mins in presence of ATP by Z'-LYTE assay; assay type: protein-complex assay
Cyclin-dependent kinase 5/CDK5 activator 1 (Homo sapiens), sequence (Q00535 whole entry): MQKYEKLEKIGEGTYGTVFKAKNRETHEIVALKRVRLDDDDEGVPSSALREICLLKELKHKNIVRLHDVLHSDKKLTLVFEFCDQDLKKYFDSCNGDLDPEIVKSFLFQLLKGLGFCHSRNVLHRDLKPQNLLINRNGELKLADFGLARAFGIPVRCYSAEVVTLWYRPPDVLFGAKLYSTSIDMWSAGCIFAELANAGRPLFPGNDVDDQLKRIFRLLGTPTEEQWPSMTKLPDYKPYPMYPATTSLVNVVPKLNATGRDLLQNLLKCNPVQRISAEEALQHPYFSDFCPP
Cyclin-dependent kinase 5/CDK5 activator 1 (Homo sapiens), sequence (Q15078 99-307 partner limits assumed): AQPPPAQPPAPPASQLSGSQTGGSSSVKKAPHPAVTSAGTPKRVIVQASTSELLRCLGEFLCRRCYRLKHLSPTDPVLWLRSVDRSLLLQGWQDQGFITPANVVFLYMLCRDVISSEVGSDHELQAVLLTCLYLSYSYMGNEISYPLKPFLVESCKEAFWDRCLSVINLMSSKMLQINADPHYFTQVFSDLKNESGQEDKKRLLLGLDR

[2] = target: T1, Interleukin-1 receptor-associated kinase 4 (Homo sapiens) (UniProt Q9NWZ3); assay: Inhibition of recombinant human full length His-tagged IRAK4 expressed in baculovirus expression system using serine/threonine-07 peptide as substrate at 10 uM incubated for 60 mins in presence of ATP by Z'-LYTE assay
T1 sequence (whole entry): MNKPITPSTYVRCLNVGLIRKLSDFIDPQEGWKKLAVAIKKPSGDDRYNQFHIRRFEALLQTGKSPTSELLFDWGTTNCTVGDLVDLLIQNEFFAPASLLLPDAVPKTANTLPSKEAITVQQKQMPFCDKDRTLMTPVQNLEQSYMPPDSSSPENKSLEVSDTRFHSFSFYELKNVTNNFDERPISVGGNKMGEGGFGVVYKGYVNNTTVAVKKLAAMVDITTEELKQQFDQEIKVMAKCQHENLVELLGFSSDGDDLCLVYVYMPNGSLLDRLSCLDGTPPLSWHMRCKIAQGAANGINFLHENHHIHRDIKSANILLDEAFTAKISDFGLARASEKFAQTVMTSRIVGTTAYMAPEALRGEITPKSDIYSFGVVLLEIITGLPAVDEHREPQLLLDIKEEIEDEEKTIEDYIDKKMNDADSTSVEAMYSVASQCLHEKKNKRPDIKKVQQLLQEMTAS

Caenorhabditis elegans [3] = assay: Inhibition of CDC7 in transgenic Caenorhabditis elegans CK423 Bus-8(e2698) expressing human TDP-43 assessed as inhibition of TDP-43 phosphorylation at 75 uM measured after 6 days by Western blot assay; conditions: time 6.0 day
Caenorhabditis elegans [4] = assay: Inhibition of CDC7 in transgenic Caenorhabditis elegans CK423 Bus-8(e2698) expressing human TDP-43 assessed as inhibition of TDP-43 phosphorylation at 10 to 75 uM measured after 6 days by Western blot assay; conditions: dose 10-75 µM, time 6.0 day
Mus musculus [5] = assay: Neuroprotective activity in Prp-hTDP43 (A315T) transgenic amyotrophic lateral sclerosis mouse model assessed as decrease in clasping behavioural at 5 mg/kg, ip qd measured on week 5 by rotarod test; assay type: functional, organism-based; conditions: time 5.0 weeks
Mus musculus [6] = assay: Neuroprotective activity in Prp-hTDP43 (A315T) transgenic amyotrophic lateral sclerosis mouse model assessed as decrease in clasping behavioural at 5 mg/kg, ip qd measured on week 3 by rotarod test; assay type: functional, organism-based; conditions: time 3.0 weeks
Mus musculus [7] = assay: Neuroprotective activity in Prp-hTDP43 (A315T) mouse assessed by decrease in TDP-43 phosphorylation in spinal cord tissue at 5 mg/kg, ip qd for 30 days by Western blot assay; assay type: functional, organism-based; conditions: time 30.0 day
[8] = Toxicity in Prp-hTDP43 (A315T) mouse at 5 mg/kg, ip qd for 30 days; assay type: organism-based; conditions: in vivo, 720 h, time 30 day
SH-SY5Y = assay: Neuroprotective activity in human SH-SY5Y cells assessed as decrease in cytoplasmic TDP-43 preincubated for 1 hr followed by incubation with ethacrynic acid for 24 hrs measured at 10 uM by immunofluorescence assay; assay type: functional, cell-based

With `c1ccc(CSc2ncnc3[nH]cnc23)cc1` the inhibition [1] was “inactive”, the inhibition [2] was “inactive” and the inhibition (Caenorhabditis elegans [3]) was “Active”.

In the case of `Brc1ccccc1CSc1ncnc2[nH]cnc12`, the inhibition [1] is reported as “inactive”, the inhibition [2] is reported as “inactive” and the inhibition (Caenorhabditis elegans [4]) is reported as “inactive”. The Activity (Mus musculus [5]) was “Active”, the Activity (Mus musculus [6]) was “Active” and the Activity (Mus musculus [7]) was “Active”. For the same compound, the Activity [8] was “Non-Toxic”.

For `Clc1cccc(CSc2ncnc3[nH]cnc23)c1`, the inhibition [1] was “inactive”, the inhibition [2] was “inactive” and the Activity (SH-SY5Y) was “Active”. For the same compound, the inhibition (Caenorhabditis elegans [4]) was “inactive”.
